Earlier results, collected in patent publication US7853626B2, “Computational systems for biomedical data” (The Invention Science Fund I, LLC, priority 2006, dated 2010).
Read-outs that look alike come from different tables or passages of the source.

Legend:
hyperthyroidism = conditions: groups not comparable at baseline (surgery group younger, in better health)

[131IH] [iodine-131]
frequency of illness and death compared with surgery (hyperthyroidism): much higher frequency of illness and death

Nc1nc2[nH]cc(CCc3ccc(C(=O)N[C@@H](CCC(=O)O)C(=O)O)cc3)c2c(=O)[nH]1 [pemetrexed]
subset efficacy (members of the identified subpopulation (low methylmalonic acid / homocysteine)): maintained or improved efficacy
odds ratio of developing severe toxicity (overall study population): 1
odds ratio of developing severe toxicity (subpopulation with total homocysteine levels of less than 7.5 μmol/l): 0.7
